Test system: PRISM DNA-barcoded human tumour cell lines
Experiment: PRISM pooled cell viability assay;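 for Area under the curve (AUC): 8 threefold dilutions from 10 µM with 5 days of exposure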;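 for PRISM AUC: 8 threefold dilutions from 10 µM with 5 days of exposure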
Format: cell-based
Design: Area under the curve (AUC): scale not given here; AUC (PRISM viability) / AUC (PRISM): unit not given beside the values
Conditions: for AUC (PRISM): BRAF class I; for PRISM AUC: KRAS MUT; for AUC (PRISM viability): WT
Experimental: Cells were then lysed in TCL mRNA lysis buffer, and then PCR with reverse transcription was performed. Detection of the barcodes and univariate and multivariate analysis was then performed as previously described. Data analysis is described in the Supplementary Methods. Up-to-date code for our analysis is at the github link: https://github.com/cmap/dockerized_mts.
For every gene with non-silent mutations in at least four cell-lines, we compared the AUC values between cells with and without those mutations using a t-test. This analysis was carried out for: (i) the full dataset; (ii) excluding cell lines with non-silent KRAS mutations; and (iii) excluding cell lines that have either KRAS or NRAS non-silent mutations.

[1] = DND41_HAEMATOPOIETIC_AND_LYMPHOID_TISSUE

CCn1c(-c2cc(N3CCN(C4CC4)CC3)cnc2[C@H](C)OC)c2c3cc(ccc31)-c1csc(n1)C[C@H](NC(=O)[C@H]1[C@@H]3COC[C@@H]31)C(=O)N1CCC[C@H](N1)C(=O)OCC(C)(C)C2 [RMC-7977]
Area under the curve (AUC) (42MGBA_CENTRAL_NERVOUS_SYSTEM): 0.8215
Area under the curve (AUC) (253JBV_URINARY_TRACT): 0.7547
Area under the curve (AUC) (639V_URINARY_TRACT): 0.5786
Area under the curve (AUC) (647V_URINARY_TRACT): 0.793
Area under the curve (AUC) (697_HAEMATOPOIETIC_AND_LYMPHOID_TISSUE): 0.7402
Area under the curve (AUC) (769P_KIDNEY): 0.9025
Area under the curve (AUC) (786O_KIDNEY): 0.9593
Area under the curve (AUC) (5637_URINARY_TRACT): 0.5198
Area under the curve (AUC) (8305C_THYROID): 0.8425
AUC (PRISM) (A101D_SKIN): 0.8318
AUC (PRISM) (A375_SKIN): 0.8721
PRISM AUC (A549_LUNG): 0.4422
AUC (PRISM) (A1207_CENTRAL_NERVOUS_SYSTEM): 0.9848
AUC (PRISM) (A2058_SKIN): 0.6601
PRISM AUC (AGS_STOMACH): 0.2114
PRISM AUC (ASPC1_PANCREAS): 0.2372
PRISM AUC (CAL62_THYROID): 0.7922
PRISM AUC (CALU1_LUNG): 0.3345
Area under the curve (AUC) (CAOV3_OVARY): 0.8029
Area under the curve (AUC) (CAPAN2_PANCREAS): 0.3724
PRISM AUC (CAPAN2_PANCREAS): 0.2599
Area under the curve (AUC) (CAS1_CENTRAL_NERVOUS_SYSTEM): 0.8726
Area under the curve (AUC) (CASKI_CERVIX): 0.7017
Area under the curve (AUC) (CBAGPN_BONE): 0.5843
Area under the curve (AUC) (CCFSTTG1_CENTRAL_NERVOUS_SYSTEM): 0.8445
Area under the curve (AUC) (CCK81_LARGE_INTESTINE): 0.8268
Area under the curve (AUC) (CCLP1_BILIARY_TRACT): 0.6816
Area under the curve (AUC) (CCSW1_BILIARY_TRACT): 0.6555
Area under the curve (AUC) (CFPAC1_PANCREAS): 0.5351
PRISM AUC (CFPAC1_PANCREAS): 0.2506
Area under the curve (AUC) (CH157MN_CENTRAL_NERVOUS_SYSTEM): 0.6397
Area under the curve (AUC) (CHAGOK1_LUNG): 0.489
Area under the curve (AUC) (CHL1_SKIN): 0.6244
Area under the curve (AUC) (CHLA06ATRT_SOFT_TISSUE): 0.5593
Area under the curve (AUC) (CHLA10_BONE): 0.7982
Area under the curve (AUC) (CHLA15_AUTONOMIC_GANGLIA): 0.6039
Area under the curve (AUC) (CHLA57_BONE): 0.7007
Area under the curve (AUC) (CHLA200_CENTRAL_NERVOUS_SYSTEM): 0.6544
Area under the curve (AUC) (CJM_SKIN): 0.5835
Area under the curve (AUC) (CL11_LARGE_INTESTINE): 0.4982
Area under the curve (AUC) (CMLT1_HAEMATOPOIETIC_AND_LYMPHOID_TISSUE): 0.6333
Area under the curve (AUC) (COGAR359_SOFT_TISSUE): 0.7818
Area under the curve (AUC) (COGE352_BONE): 0.9516
Area under the curve (AUC) (COGN278_AUTONOMIC_GANGLIA): 0.4846
Area under the curve (AUC) (COLO320_LARGE_INTESTINE): 0.6681
Area under the curve (AUC) (COLO668_LUNG): 0.6484
PRISM AUC (COLO668_LUNG): 0.815
Area under the curve (AUC) (COLO678_LARGE_INTESTINE): 0.7153
Area under the curve (AUC) (COLO679_SKIN): 0.858
Area under the curve (AUC) (COLO680N_OESOPHAGUS): 0.6858
Area under the curve (AUC) (COLO741_SKIN): 1
Area under the curve (AUC) (COLO783_SKIN): 0.8893
Area under the curve (AUC) (COLO792_SKIN): 0.7007
Area under the curve (AUC) (COLO800_SKIN): 0.7125
Area under the curve (AUC) (CORL23_LUNG): 0.5921
PRISM AUC (CORL23_LUNG): 0.1909
Area under the curve (AUC) (CORL88_LUNG): 0.5624
Area under the curve (AUC) (CORL105_LUNG): 0.7085
Area under the curve (AUC) (CORL279_LUNG): 0.7248
Area under the curve (AUC) (COV318_OVARY): 0.8633
Area under the curve (AUC) (COV362_OVARY): 0.7849
Area under the curve (AUC) (COV434_OVARY): 0.99
Area under the curve (AUC) (COV644_OVARY): 0.7771
Area under the curve (AUC) (CW2_LARGE_INTESTINE): 0.99
Area under the curve (AUC) (CW9019_SOFT_TISSUE): 0.6651
Area under the curve (AUC) (DANG_PANCREAS): 0.3955
PRISM AUC (DANG_PANCREAS): 0.2087
Area under the curve (AUC) (DAOY_CENTRAL_NERVOUS_SYSTEM): 0.7146
Area under the curve (AUC) (DBTRG05MG_CENTRAL_NERVOUS_SYSTEM): 0.9233
Area under the curve (AUC) (DEL_HAEMATOPOIETIC_AND_LYMPHOID_TISSUE): 0.7782
Area under the curve (AUC) (DETROIT562_UPPER_AERODIGESTIVE_TRACT): 0.4955
Area under the curve (AUC) (DKMG_CENTRAL_NERVOUS_SYSTEM): 0.9357
Area under the curve (AUC) (DL_SOFT_TISSUE): 0.5482
Area under the curve (AUC) (DMS53_LUNG): 0.9195
Area under the curve (AUC) (DMS79_LUNG): 0.9708
Area under the curve (AUC) (DMS273_LUNG): 0.8299
Area under the curve (AUC) [1]: 0.662
PRISM AUC [1]: 0.4904
Area under the curve (AUC) (DOHH2_HAEMATOPOIETIC_AND_LYMPHOID_TISSUE): 0.794
Area under the curve (AUC) (DOTC24510_CERVIX): 0.5479
Area under the curve (AUC) (DU145_PROSTATE): 0.7717
Area under the curve (AUC) (DU4475_BREAST): 0.7278
Area under the curve (AUC) (DV90_LUNG): 0.3742
PRISM AUC (DV90_LUNG): 0.1773
Area under the curve (AUC) (EB1_HAEMATOPOIETIC_AND_LYMPHOID_TISSUE): 0.7516
Area under the curve (AUC) (EBC1_LUNG): 0.4773
Area under the curve (AUC) (ECC2_BILIARY_TRACT): 0.751
Area under the curve (AUC) (ECC10_STOMACH): 0.6145
Area under the curve (AUC) (ECGI10_OESOPHAGUS): 0.5375
Area under the curve (AUC) (EFE184_ENDOMETRIUM): 0.7163
Area under the curve (AUC) (EFM19_BREAST): 0.9395
Area under the curve (AUC) (EFM192A_BREAST): 1
Area under the curve (AUC) (EFO21_OVARY): 0.6416
Area under the curve (AUC) (EFO27_OVARY): 0.6995
Area under the curve (AUC) (EGI1_BILIARY_TRACT): 0.5258
Area under the curve (AUC) (EKVX_LUNG): 0.7007
Area under the curve (AUC) (EM2_HAEMATOPOIETIC_AND_LYMPHOID_TISSUE): 0.5861
Area under the curve (AUC) (EMTOKA_ENDOMETRIUM): 0.6769
Area under the curve (AUC) (EN_ENDOMETRIUM): 0.882
Area under the curve (AUC) (ES2_OVARY): 0.9145
Area under the curve (AUC) (ESS1_ENDOMETRIUM): 0.5647
Area under the curve (AUC) (EW8_BONE): 0.6981
Area under the curve (AUC) (EWS502_BONE): 0.6483
Area under the curve (AUC) (FADU_UPPER_AERODIGESTIVE_TRACT): 0.6687
Area under the curve (AUC) (FLO1_OESOPHAGUS): 1
Area under the curve (AUC) (FTC133_THYROID): 0.5671
Area under the curve (AUC) (FTC238_THYROID): 0.9611
Area under the curve (AUC) (G292CLONEA141B1): 0.925
Area under the curve (AUC) (G292CLONEA141B1_BONE): 0.8311
Area under the curve (AUC) (G361_SKIN): 1
Area under the curve (AUC) (G401_SOFT_TISSUE): 0.9104
Area under the curve (AUC) (G402_SOFT_TISSUE): 0.9029
Area under the curve (AUC) (G415_BILIARY_TRACT): 0.596
Area under the curve (AUC) (GAMG_CENTRAL_NERVOUS_SYSTEM): 0.6539
Area under the curve (AUC) (GB1_CENTRAL_NERVOUS_SYSTEM): 1
Area under the curve (AUC) (GB2_BILIARY_TRACT): 0.5045
PRISM AUC (GP2D_LARGE_INTESTINE): 0.4036
PRISM AUC (GSU_STOMACH): 0.1903
PRISM AUC (HCC44_LUNG): 0.3549
PRISM AUC (HCC56_LARGE_INTESTINE): 0.1735
PRISM AUC (HCT15_LARGE_INTESTINE): 0.6069
PRISM AUC (HCT116_LARGE_INTESTINE): 0.4206
PRISM AUC (HEC1A_ENDOMETRIUM): 0.5452
PRISM AUC (HEC1B_ENDOMETRIUM): 0.557
PRISM AUC (HEYA8_OVARY): 0.3651
PRISM AUC (HMC18_BREAST): 0.1236
PRISM AUC (HPAC_PANCREAS): 0.2345
PRISM AUC (HPAFII_PANCREAS): 0.1832
AUC (PRISM viability) (HT29_LARGE_INTESTINE): 0.9401
AUC (PRISM viability) (HT55_LARGE_INTESTINE): 0.5483
AUC (PRISM viability) (HT144_SKIN): 0.8437
AUC (PRISM viability) (HT_HAEMATOPOIETIC_AND_LYMPHOID_TISSUE): 0.5864
PRISM AUC (HUCCT1_BILIARY_TRACT): 0.2016

— paper PMC11111408, “Concurrent inhibition of oncogenic and wild-type RAS-GTP for cancer therapy” (Nature, 2024)
